Values after ≈ are worked out from the molar mass of the structure shown.
Assays:
[1] = test system: Lactobacillus helveticus CH-1; test: Plate diffusion bioassay of cell-free extracts / culture supernatants; format: cell-based; details: for Activity (% of wt): antimicrobial activity in culture supernatants of gene-replaced strains, plate diffusion bioassays; for nisin activity (% of wild type), gene replacement: functional nisA gene incorporated in the chromosome of FI7990 in place of nisA deletion
Procedure: 150 μl samples of cell free extracts from strains: 4, FI5876; 5, FI7990; 6, FI8070; 7, FI8198; 8, FI8199 were loaded into wells bored in MRS agar seeded with the indicator strains Lactobacillus helveticus CH-1. Plates were incubated overnight at 42° C. Standards included on the assay plate are: 1,50; 2,100; 3,200; 9,300; 10,400 U/ml.
Nisin activity in Lactococcal strains was assayed by both deferred and direct means. Plate diffusion bioassays were performed as previously described (Dodd et al (1992) Appl. Environ. Microbiol. 58, 3683-3693. Colonies growing on the surface of a GM17 plate were directly assayed by inverting over chloroform for 12 minutes and overlaying with agar seeded with the nisin sensitive L. lactis strain MG1614. Plates were incubated overnight and zone sizes around colonies compared with those of controls. Nisin immunity was determined by streaking cultures on a series of GM17 agar plates containing an increasing concentration of nisin and assessing the degree of growth at the different nisin levels. Control cultures (FI5876, positive) and MG1614 (negative) were included on each plate.
This corresponds to an increase of approximately 50% of nisin A levels, under the conditions used here (Table 1). This higher level of production was not found in the extracts of FI8199, producing the double mutant nisin A/Dha5A,Dha33A. […] In all cases the yield for a particular nisin variant was higher when using this gene replacement strategy than when the equivalent plasmid-encoded gene was employed in a plasmid complementation system (Table 3, Dodd et al (1992) (1993) supra).

[2] = test system: FI7847 [nisA-(fs)]; test: Induction by nisin / nisin variants as inducing agent; format: cell-based, L. lactis; set-up: Induction: unit not given here; details: for Induction: strain FI7847
Procedure: A particularly preferred embodiment of the third aspect of the invention is wherein the cells are cultured in the presence of nisA nisin or a variant nisin which can induce nisin expression. […] By adding sub-inhibitory concentrations of nisin to the growth medium, during fermentation, higher levels of the variant nisin are produced. Any variants that are less efficient as inducing agents benefit from the inclusion of nisin in the growth medium (ie a nisin induction step in the purification procedure). The amount of induction varies depending on the initial induction capacity of any particular variant (with I30W nisin A production more than doubled as a result of induction). Induction may be routinely included in the method as a means of maximising production levels. Any concerns about contamination with the wild type molecule are minimal as the nisin concentration required for induction is negligible compared to the amount of nisin variant being purified. Conveniently, the nisA nisin is a minimum amount that provides maximal induction of nisin production. This amount can be determined empirically by a person skilled in the art. Suitable nisA nisin concentrations for induction in this embodiment are from 1 nM to 500 nM, preferably 10 nM to 250 nM, more preferably 50 nM to 150 nM, most preferably 100 nM.
In some circumstances it is desirable to add nisA nisin as an inducer.

[3] = test system: sensitive L. Lactis strain MG1614; test: Minimum inhibitory concentration (MIC); format: cell-based; details: Table 5
[4] = test system: sensitive indicator strains; details: work described in WO 93/20213; cited from earlier work
[5] = test system: Lactobacillus helveticus CH-1; details: plate diffusion bioassay; plasmid-encoded nisA gene complementing nisA deficiency in host strain FI7332; cited from earlier work

In the case of `C=C1NC(=O)[C@H]([C@@H](C)CC)NC(=O)[C@H](NC(=O)/C(=C/C)NC(=O)[C@@H](N)[C@@H](C)CC)CSC[C@@H](C(=O)N[C@H]2C(=O)N3CCC[C@H]3C(=O)NCC(=O)N[C@H](C(=O)N[C@@H](CCCCN)C(=O)N[C@H]3C(=O)NCC(=O)N[C@@H](C)C(=O)N[C@@H](CC(C)C)C(=O)N[C@@H](CCSC)C(=O)NCC(=O)N[C@H](C(=O)N[C@@H](CC(N)=O)C(=O)N[C@@H](CCSC)C(=O)N[C@@H](CCCCN)C(=O)N[C@H]4C(=O)N[C@@H](C)C(=O)N[C@H]5C(=O)N[C@@H](CS[C@H]4C)C(=O)N[C@@H](Cc4c[nH]cn4)C(=O)N[C@H](C(=O)N[C@@H](CO)C(=O)N[C@H](C(=O)N[C@@H](Cc4c[nH]cn4)C(=O)N[C@H](C(=O)N[C@@H](C)C(=O)N[C@@H](CCCCN)C(=O)O)C(C)C)[C@@H](C)CC)CS[C@H]5C)CS[C@H]3C)CS[C@H]2C)NC(=O)[C@H](CC(C)C)NC1=O` [nisin A (Dha33A)], the “Activity (% of wt)” value [1] is reported as 150 % of wt, the “increase over nisin A levels” value ([1]; cell extract from FI8198, plate diffusion bioassay) is reported as “approximately 50%” and the “zone of inhibition / inhibitory effect compared with parent strain FI5876” value ([1]; cell extracts of gene-replaced strains, plate diffusion bioassay) is reported as “larger than that of the parent strain”. The “nisin activity (% of wild type), gene replacement” value ([1]; plate diffusion bioassay) was 150 % of wild type, the Induction ([2]; inducing agent at 100 ng ml^−1) was 17 and the Induction ([2]; inducing agent at 1 mg ml^−1) was 101. The MIC [3] was 0.25 mg/mL (≈ 74.5 µM), the “antimicrobial activity against sensitive indicator strains” value [4] was “retained their antimicrobial activity” and the “nisin activity (% of wild type), complementation” value [5] was 10 % of wild type.
With “H27K, H31K (MSTKDFNLDLVSVSKKDSGASPRITSISLCTPGCKTGALMGCNMKTATCKCSIKVSK; listed as Lactococcus sp.)” the “Activity (% of wt)” value [1] was 10 % of wt.
With `C=C(NC(=O)[C@@H](NC(=O)[C@H](Cc1c[nH]cn1)NC(=O)[C@@H](NC(=O)[C@H](CO)NC(=O)[C@@H]1CS[C@@H](C)[C@H]2NC(=O)[C@H](C)NC(=O)[C@H](NC(=O)[C@H](CCCCN)NC(=O)[C@H](CCSC)NC(=O)[C@H](CC(N)=O)NC(=O)[C@@H]3CS[C@@H](C)[C@@H](NC(=O)[C@H](CC(C)C)NC(=O)[C@@H]4CS[C@@H](C)[C@@H](NC(=O)[C@@H]5CSC[C@@H](NC(=O)/C(=C/C)NC(=O)[C@@H](N)[C@@H](C)CC)C(=O)N[C@@H]([C@@H](C)CC)C(=O)NC(=C)C(=O)N[C@@H](CC(C)C)C(=O)N5)C(=O)N5CCC[C@H]5C(=O)NCC(=O)N4)C(=O)NCC(=O)N[C@@H](C)C(=O)N[C@@H](CC(C)C)C(=O)N[C@@H](CCSC)C(=O)NCC(=O)N3)[C@H](C)SC[C@H](NC2=O)C(=O)N[C@@H](Cc2c[nH]cn2)C(=O)N1)[C@@H](C)CC)C(C)C)C(=O)N[C@@H](CCCCN)C(=O)O` [K12L] the “Activity (% of wt)” value [1] was 10 % of wt, the Induction ([2]; inducing agent at 100 ng ml^−1) was 81 and the MIC [3] was 0.13 mg/mL (≈ 38.9 µM).
For `C=C(NC(=O)[C@@H](NC(=O)[C@H](Cc1c[nH]cn1)NC(=O)[C@@H](NC(=O)[C@H](CO)NC(=O)[C@@H]1CS[C@@H](C)[C@H]2NC(=O)[C@H](C)NC(=O)[C@H](NC(=O)[C@H](CCCCN)NC(=O)[C@H](CCSC)NC(=O)[C@H](CC(N)=O)NC(=O)[C@@H]3CS[C@@H](C)[C@@H](NC(=O)[C@H](CCCCN)NC(=O)[C@@H]4CS[C@@H](C)[C@@H](NC(=O)[C@@H]5CSC[C@@H](NC(=O)/C(=C/C)NC(=O)[C@@H](N)[C@@H](C)CC)C(=O)N[C@@H]([C@@H](C)CC)C(=O)N[C@@H](C)C(=O)N[C@@H](CC(C)C)C(=O)N5)C(=O)N5CCC[C@H]5C(=O)NCC(=O)N4)C(=O)NCC(=O)N[C@@H](C)C(=O)N[C@@H](CC(C)C)C(=O)N[C@@H](CCSC)C(=O)NCC(=O)N3)[C@H](C)SC[C@H](NC2=O)C(=O)N[C@@H](Cc2c[nH]cn2)C(=O)N1)[C@@H](C)CC)C(C)C)C(=O)N[C@@H](CCCCN)C(=O)O` [nisin A (Dha5A)], the “Activity (% of wt)” value [1] was 100 % of wt, the “nisin activity (% of wild type), gene replacement” value ([1]; plate diffusion bioassay) was 100 % of wild type and the Induction ([2]; inducing agent at 100 ng ml^−1) was 114. For the same compound, the Induction ([2]; inducing agent at 1 mg ml^−1) was 107, the MIC [3] was 0.25 mg/mL (≈ 74.5 µM) and the “antimicrobial activity against sensitive indicator strains” value [4] was “retained their antimicrobial activity”. The “nisin activity (% of wild type), complementation” value [5] was 25 % of wild type.
In the case of `C=C(NC(=O)[C@@H](NC(=O)[C@H](Cc1c[nH]cn1)NC(=O)[C@H](Cc1c[nH]c2ccccc12)NC(=O)[C@H](CO)NC(=O)[C@@H]1CS[C@@H](C)[C@H]2NC(=O)[C@H](C)NC(=O)[C@H](NC(=O)[C@H](CCCCN)NC(=O)[C@H](CCSC)NC(=O)[C@H](CC(N)=O)NC(=O)[C@@H]3CS[C@@H](C)[C@@H](NC(=O)[C@H](CCCCN)NC(=O)[C@@H]4CS[C@@H](C)[C@@H](NC(=O)[C@@H]5CSC[C@@H](NC(=O)/C(=C/C)NC(=O)[C@@H](N)[C@@H](C)CC)C(=O)N[C@@H]([C@@H](C)CC)C(=O)NC(=C)C(=O)N[C@@H](CC(C)C)C(=O)N5)C(=O)N5CCC[C@H]5C(=O)NCC(=O)N4)C(=O)NCC(=O)N[C@@H](C)C(=O)N[C@@H](CC(C)C)C(=O)N[C@@H](CCSC)C(=O)NCC(=O)N3)[C@H](C)SC[C@H](NC2=O)C(=O)N[C@@H](Cc2c[nH]cn2)C(=O)N1)C(C)C)C(=O)N[C@@H](CCCCN)C(=O)O` [I30W], the “Activity (% of wt)” value [1] is reported as <1 % of wt, the “function as inducer of its own biosynthesis” value [2] is reported as “does not function well as an inducer of its own biosynthesis” and the Induction ([2]; inducing agent at 100 ng ml^−1) is reported as 41. It also gave an MIC [3] of 0.16 mg/mL (≈ 46.7 µM).
With “H31K (MSTKDFNLDLVSVSKKDSGASPRITSISLCTPGCKTGALMGCNMKTATCHCSIKVSK; listed as Lactococcus sp.)” the “Activity (% of wt)” value [1] was 25 % of wt.
With “ΔM21: variant nisin from nisA M21 deletion (SEQ. ID. No. 41), produced by strain FI8290 (MSTKDFNLDLVSVSKKDSGASPRITSISLCTPGCKTGALMGCNKTATCHCSIHVSK; listed as Lactococcus sp.)” the “Activity (% of wt)” value [1] was <1 % of wt.
For “S5A, H27W (MSTKDFNLDLVSVSKKDSGASPRITSIALCTPGCKTGALMGCNMKTATCWCSIHVSK; listed as Lactococcus sp.)”, the “Activity (% of wt)” value [1] was 10 % of wt.
In the case of `C=C(NC(=O)[C@@H](NC(=O)[C@H](Cc1c[nH]cn1)NC(=O)[C@@H](NC(=O)[C@H](CO)NC(=O)[C@@H]1CS[C@@H](C)[C@H]2NC(=O)[C@H](C)NC(=O)[C@H](NC(=O)[C@H](CCCCN)NC(=O)[C@H](CCSC)NC(=O)[C@H](CC(N)=O)NC(=O)[C@@H]3CS[C@@H](C)[C@@H](NC(=O)[C@H](CCCCN)NC(=O)[C@@H]4CS[C@@H](C)[C@@H](NC(=O)[C@@H]5CSC[C@@H](NC(=O)/C(=C/C)NC(=O)[C@@H](N)[C@@H](C)CC)C(=O)N[C@@H]([C@@H](C)CC)C(=O)NC(=C)C(=O)N[C@@H](CC(C)C)C(=O)N5)C(=O)N5CCC[C@H]5C(=O)NCC(=O)N4)C(=O)NCC(=O)N[C@@H](C)C(=O)N[C@@H](CC(C)C)C(=O)N[C@@H](CCSC)C(=O)NCC(=O)N3)[C@H](C)SC[C@H](NC2=O)C(=O)N[C@@H](CCCCN)C(=O)N1)[C@@H](C)CC)C(C)C)C(=O)N[C@@H](CCCCN)C(=O)O` [H27K], the “Activity (% of wt)” value [1] is reported as 100 % of wt, the Induction ([2]; inducing agent at 100 ng ml^−1) is reported as 86 and the MIC [3] is reported as 0.13 mg/mL (≈ 38.9 µM).
With “H27W (MSTKDFNLDLVSVSKKDSGASPRITSISLCTPGCKTGALMGCNMKTATCWCSIHVSK; listed as Lactococcus sp.)” the “Activity (% of wt)” value [1] was <1 % of wt.

Source: patent US6448034B1, “Production of variant nisin” (priority 1994, dated 2002)
